Data as given in PMC9268448, “Synthesis of 4,5-Dihydro-1H-[1,2]dithiolo[3,4-c]quinoline-1-thione Derivatives and Their Application as Protein Kinase Inhibitors” (Molecules, 2022).

What was measured:
[1] = molecular target: JAK2 (Homo sapiens, UniProt O60674); assay: Kinase inhibition ELISA, JAK2; format: biochemical; settings: 10 μM test compound, 150 μM ATP
Experimental: (§1) Study of inhibitory activity. The kinase activity was determined by enzyme-linked immunosorbent assay (ELISA) in polypropylene plates (Costar, 3363) in reaction buffer (20 mM HEPES, pH 7.5, 15 mM MgCl2, 2 mM DTT, 0.2 mM Na3VO4, 0.005% Triton X-100) for 60 min at 30 °C with vigorous stirring. The final concentration of the reaction components: 0.05 μg mL^–1 of the corresponding kinase, 5 nM Histon H3 biotinylated substrate (1–21) (Anaspec, 61702), 150 μM ATP (Sigma, A6419), 10 μM test compound, 5% DMSO. The enzymatic reaction was stopped with a buffer containing 20 mM HEPES (Sigma, H4034), pH 7.5, and 150 mM EDTA (Sigma, E5513). Further, to detect the phosphorylated substrate, the reaction mixture was transferred to pre-prepared plates (Nunc, 468667) coated with neutravidin (1 ng per well; Pierce, 31000) and treated with bovine serum albumin (BSA) to block non-specific binding sites. Incubation was carried out for 1 h at room temperature. After washing the plates three times with phosphate buffer saline (PBS, pH 7.4) with Tween-20, they were incubated sequentially with anti-phospho-Histon H3 antibodies (0.3 ng μL^–1; Millipore, 04-746) and with specific antibodies conjugated with an enzyme-label (peroxidase) Anti-rabbit IgG, HRP-linked Antibody (titer 1/5000; Cell Signaling, 7074). After completion of each incubation step (60 min at room temperature (~20 °C) and continuous stirring), the plates were washed three times from unbound antibody molecules with a PBS solution with Tween-20 and 100 μL of substrate (3.3′,5.5′-tetramethylbenzidine (TMB) dihydrochloride, Sigma, T8768) prepared according to the manufacturer’s instructions. Before measuring the optical density, the reaction was stopped using 0.5 M Н2SO4. The optical density of the solution was determined at λ = 450 nm using a tablet spectrophotometer (TECAN Safire). The data obtained were processed and imported into the HTSCalc program.

[2] = molecular target: T1, NPM1-ALK (Homo sapiens, UniProt Q9UM73); assay: Kinase inhibition ELISA, NPM1-ALK; format: biochemical; settings: for inhibition at 10 µM: 10 μM test compound, 150 μM ATP; for IC50: ten concentration points
T1 construct: NPM1 (nucleophosmin, P06748) fusion partner
T1 sequence (Q9UM73 whole entry, looked up, the tested form may be a part): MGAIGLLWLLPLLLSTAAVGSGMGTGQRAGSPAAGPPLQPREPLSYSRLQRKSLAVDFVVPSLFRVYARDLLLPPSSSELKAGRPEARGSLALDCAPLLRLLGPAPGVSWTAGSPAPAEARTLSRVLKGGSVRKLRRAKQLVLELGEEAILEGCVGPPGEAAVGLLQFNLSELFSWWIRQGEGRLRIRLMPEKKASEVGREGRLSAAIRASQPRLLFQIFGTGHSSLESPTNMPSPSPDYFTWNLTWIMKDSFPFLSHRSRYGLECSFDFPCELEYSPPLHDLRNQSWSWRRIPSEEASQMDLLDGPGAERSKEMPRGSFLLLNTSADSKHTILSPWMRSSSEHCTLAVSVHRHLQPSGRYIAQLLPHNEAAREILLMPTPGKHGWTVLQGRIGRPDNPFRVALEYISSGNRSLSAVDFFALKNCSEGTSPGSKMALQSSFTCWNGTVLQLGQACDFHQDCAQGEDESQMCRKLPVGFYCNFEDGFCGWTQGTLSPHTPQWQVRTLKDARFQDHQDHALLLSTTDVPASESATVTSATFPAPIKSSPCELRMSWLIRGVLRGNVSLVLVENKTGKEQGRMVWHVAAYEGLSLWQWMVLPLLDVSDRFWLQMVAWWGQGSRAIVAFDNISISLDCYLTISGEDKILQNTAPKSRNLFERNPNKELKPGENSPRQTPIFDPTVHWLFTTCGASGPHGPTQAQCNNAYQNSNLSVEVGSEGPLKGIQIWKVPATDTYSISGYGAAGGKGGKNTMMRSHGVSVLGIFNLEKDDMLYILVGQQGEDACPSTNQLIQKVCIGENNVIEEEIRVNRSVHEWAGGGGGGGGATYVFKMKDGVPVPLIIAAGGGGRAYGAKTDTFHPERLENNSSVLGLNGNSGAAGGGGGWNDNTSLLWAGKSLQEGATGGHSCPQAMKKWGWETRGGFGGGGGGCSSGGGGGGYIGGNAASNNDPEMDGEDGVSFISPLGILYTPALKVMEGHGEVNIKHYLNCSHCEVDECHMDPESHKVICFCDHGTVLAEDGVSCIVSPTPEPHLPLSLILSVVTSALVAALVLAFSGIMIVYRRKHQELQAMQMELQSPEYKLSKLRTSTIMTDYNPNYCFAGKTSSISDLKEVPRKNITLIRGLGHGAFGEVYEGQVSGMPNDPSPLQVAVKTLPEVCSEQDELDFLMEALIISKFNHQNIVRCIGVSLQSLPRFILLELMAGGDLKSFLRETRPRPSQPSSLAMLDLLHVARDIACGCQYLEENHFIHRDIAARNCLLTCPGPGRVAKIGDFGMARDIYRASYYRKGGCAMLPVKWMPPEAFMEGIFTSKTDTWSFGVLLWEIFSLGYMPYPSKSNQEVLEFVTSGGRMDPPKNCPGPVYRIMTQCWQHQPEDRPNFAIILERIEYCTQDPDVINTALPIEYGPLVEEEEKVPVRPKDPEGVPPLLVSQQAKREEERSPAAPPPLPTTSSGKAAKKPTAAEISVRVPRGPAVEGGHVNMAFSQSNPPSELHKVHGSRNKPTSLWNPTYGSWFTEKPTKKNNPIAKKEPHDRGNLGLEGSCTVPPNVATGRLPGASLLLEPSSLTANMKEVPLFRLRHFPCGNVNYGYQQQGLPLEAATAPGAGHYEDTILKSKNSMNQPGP
Experimental: (§2) Study of inhibitory activity. […] The enzymatic reaction was stopped with a buffer containing 20 mM HEPES (Sigma, H4034), pH 7.5, and 150 mM EDTA (Sigma, E5513). […] Incubation was carried out for 1 h at room temperature. […] After completion of each incubation step (60 min at room temperature (~20 °C) and continuous stirring), the plates were washed three times from unbound antibody molecules with a PBS solution with Tween-20 and 100 μL of substrate (3.3′,5.5′-tetramethylbenzidine (TMB) dihydrochloride, Sigma, T8768) prepared according to the manufacturer’s instructions. Before measuring the optical density, the reaction was stopped using 0.5 M Н2SO4. The optical density of the solution was determined at λ = 450 nm using a tablet spectrophotometer (TECAN Safire). The data obtained were processed and imported into the HTSCalc program.
(§3) The data were analyzed using GraphPad Prism software (v. 3.1).

[3] = molecular target: ALK (Homo sapiens, UniProt Q9UM73); assay: Kinase inhibition ELISA, ALK; format: biochemical; settings: 10 μM test compound, 150 μM ATP
Sequence of ALK (Q9UM73 19-1620): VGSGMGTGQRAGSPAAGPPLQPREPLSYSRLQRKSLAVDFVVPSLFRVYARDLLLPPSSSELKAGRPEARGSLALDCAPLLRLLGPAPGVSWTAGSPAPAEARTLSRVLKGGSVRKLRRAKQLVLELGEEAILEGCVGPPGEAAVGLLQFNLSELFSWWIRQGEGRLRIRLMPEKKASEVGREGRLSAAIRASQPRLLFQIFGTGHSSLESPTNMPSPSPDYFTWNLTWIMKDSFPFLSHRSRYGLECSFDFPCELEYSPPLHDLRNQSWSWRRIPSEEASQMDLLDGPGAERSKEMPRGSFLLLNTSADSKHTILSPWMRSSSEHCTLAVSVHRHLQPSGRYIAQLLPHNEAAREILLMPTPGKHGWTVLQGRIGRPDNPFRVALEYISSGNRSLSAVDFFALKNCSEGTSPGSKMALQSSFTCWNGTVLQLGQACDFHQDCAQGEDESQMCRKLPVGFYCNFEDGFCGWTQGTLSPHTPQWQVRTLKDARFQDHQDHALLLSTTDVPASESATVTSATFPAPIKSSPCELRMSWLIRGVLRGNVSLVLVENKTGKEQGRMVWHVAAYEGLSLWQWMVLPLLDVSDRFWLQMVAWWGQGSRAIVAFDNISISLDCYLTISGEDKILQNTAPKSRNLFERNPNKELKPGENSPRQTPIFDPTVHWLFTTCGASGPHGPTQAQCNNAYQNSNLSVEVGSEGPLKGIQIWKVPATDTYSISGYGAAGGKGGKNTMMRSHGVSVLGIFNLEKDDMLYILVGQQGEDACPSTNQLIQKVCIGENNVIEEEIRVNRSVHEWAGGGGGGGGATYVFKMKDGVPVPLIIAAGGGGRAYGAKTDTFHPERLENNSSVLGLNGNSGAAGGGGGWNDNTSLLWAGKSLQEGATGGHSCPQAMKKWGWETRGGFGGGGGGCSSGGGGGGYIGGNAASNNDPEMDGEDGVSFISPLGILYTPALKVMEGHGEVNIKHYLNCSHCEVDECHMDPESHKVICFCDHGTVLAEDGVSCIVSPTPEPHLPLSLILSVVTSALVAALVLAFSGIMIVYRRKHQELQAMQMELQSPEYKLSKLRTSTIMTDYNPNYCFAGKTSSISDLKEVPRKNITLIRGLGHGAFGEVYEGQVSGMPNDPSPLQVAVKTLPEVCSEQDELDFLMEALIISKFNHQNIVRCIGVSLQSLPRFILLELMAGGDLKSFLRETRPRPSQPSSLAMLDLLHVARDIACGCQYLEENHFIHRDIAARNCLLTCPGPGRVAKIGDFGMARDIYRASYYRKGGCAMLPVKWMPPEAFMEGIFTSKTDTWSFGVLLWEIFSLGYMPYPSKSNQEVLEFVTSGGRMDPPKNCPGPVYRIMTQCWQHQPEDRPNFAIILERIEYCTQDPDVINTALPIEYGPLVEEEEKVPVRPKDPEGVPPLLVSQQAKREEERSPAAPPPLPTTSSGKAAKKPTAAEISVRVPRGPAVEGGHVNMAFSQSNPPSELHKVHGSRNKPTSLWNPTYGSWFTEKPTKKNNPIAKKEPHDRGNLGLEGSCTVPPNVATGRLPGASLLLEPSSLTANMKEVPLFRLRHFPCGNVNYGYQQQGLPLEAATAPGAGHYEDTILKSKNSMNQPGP
Experimental: as §1

[4] = molecular target: EGFR[L858R][T790] (Homo sapiens, UniProt P00533, L858R/T790M); assay: Kinase inhibition ELISA, EGFR[L858R][T790]; format: biochemical; settings: 10 μM test compound, 150 μM ATP
Sequence of EGFR[L858R][T790] (P00533 669-1210 T790M/L858R limits assumed): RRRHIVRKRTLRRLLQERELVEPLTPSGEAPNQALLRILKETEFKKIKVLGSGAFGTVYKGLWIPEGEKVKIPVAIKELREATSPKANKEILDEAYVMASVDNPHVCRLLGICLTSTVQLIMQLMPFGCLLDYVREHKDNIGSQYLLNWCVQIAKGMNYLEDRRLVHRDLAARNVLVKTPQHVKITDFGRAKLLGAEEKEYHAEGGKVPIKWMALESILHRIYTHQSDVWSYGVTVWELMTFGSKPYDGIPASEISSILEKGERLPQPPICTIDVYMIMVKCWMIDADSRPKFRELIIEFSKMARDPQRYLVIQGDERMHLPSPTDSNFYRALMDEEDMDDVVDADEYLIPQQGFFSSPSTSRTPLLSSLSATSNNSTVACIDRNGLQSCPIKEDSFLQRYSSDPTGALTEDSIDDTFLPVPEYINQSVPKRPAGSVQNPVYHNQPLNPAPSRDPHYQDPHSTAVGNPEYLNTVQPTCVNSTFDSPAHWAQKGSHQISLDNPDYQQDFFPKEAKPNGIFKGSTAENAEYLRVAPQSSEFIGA
Experimental: as §1

[5] = molecular target: cRAF[Y340D][Y341D] (Homo sapiens, UniProt P04049, Y340D/Y341D); assay: Kinase inhibition ELISA, cRAF[Y340D][Y341D]; format: biochemical; settings: for inhibition at 10 µM: 10 μM test compound, 150 μM ATP; for IC50: ten concentration points
Experimental: as §2, §3

[6] = molecular target: T2, JAK3 (Homo sapiens, UniProt P52333); assay: Kinase inhibition ELISA, JAK3; format: biochemical; settings: for inhibition at 10 µM: 10 μM test compound, 150 μM ATP; for IC50: ten concentration points
T2 sequence (P52333 1-1124): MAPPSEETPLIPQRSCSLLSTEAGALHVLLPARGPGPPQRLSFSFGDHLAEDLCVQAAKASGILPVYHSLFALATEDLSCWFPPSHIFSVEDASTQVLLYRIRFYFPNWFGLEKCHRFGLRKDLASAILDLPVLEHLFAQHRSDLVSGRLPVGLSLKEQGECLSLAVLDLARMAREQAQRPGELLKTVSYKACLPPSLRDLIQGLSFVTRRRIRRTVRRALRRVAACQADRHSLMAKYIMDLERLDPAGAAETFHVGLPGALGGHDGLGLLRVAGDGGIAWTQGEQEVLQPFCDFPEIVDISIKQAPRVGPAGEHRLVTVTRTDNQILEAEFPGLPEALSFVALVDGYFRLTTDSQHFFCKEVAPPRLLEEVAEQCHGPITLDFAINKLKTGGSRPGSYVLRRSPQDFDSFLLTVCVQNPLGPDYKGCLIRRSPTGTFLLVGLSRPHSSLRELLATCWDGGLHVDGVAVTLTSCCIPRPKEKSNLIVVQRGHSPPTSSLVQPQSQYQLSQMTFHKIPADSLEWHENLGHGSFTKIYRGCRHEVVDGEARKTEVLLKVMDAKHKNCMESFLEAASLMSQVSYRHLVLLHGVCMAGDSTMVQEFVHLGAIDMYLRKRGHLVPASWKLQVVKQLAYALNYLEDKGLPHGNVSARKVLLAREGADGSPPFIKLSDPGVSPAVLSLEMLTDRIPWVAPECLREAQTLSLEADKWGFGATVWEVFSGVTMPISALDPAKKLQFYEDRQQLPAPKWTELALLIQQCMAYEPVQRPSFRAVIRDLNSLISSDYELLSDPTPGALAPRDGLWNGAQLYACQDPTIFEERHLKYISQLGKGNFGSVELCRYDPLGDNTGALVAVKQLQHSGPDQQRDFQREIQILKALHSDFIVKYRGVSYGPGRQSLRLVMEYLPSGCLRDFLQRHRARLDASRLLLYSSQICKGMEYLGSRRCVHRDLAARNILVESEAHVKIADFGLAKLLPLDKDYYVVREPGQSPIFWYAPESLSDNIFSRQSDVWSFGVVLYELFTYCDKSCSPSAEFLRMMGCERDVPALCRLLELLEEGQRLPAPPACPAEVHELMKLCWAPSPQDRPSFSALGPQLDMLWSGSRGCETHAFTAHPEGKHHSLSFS
Experimental: as §1
(§4) For compounds 2a–c,q, the IC50 value (μmol L^–1) was calculated from ten concentration points (in triplicate dilution) obtained twice. The data were analyzed using GraphPad Prism software (v. 3.1).

[7] = system: protein kinases NPM1-ALK, ALK, EGFR[L858R][T790], cRAF[Y340D][Y341D], JAK2, and JAK3; assay: Kinase inhibition ELISA, summary over the studied protein kinases; format: biochemical, human; settings: primary screening, 10 μM test compound
Experimental: Study of inhibitory activity. The kinase activity was determined by enzyme-linked immunosorbent assay (ELISA) in polypropylene plates (Costar, 3363) in reaction buffer (20 mM HEPES, pH 7.5, 15 mM MgCl2, 2 mM DTT, 0.2 mM Na3VO4, 0.005% Triton X-100) for 60 min at 30 °C with vigorous stirring. The final concentration of the reaction components: 0.05 μg mL^–1 of the corresponding kinase, 5 nM Histon H3 biotinylated substrate (1–21) (Anaspec, 61702), 150 μM ATP (Sigma, A6419), 10 μM test compound, 5% DMSO. The enzymatic reaction was stopped with a buffer containing 20 mM HEPES (Sigma, H4034), pH 7.5, and 150 mM EDTA (Sigma, E5513). Further, to detect the phosphorylated substrate, the reaction mixture was transferred to pre-prepared plates (Nunc, 468667) coated with neutravidin (1 ng per well; Pierce, 31000) and treated with bovine serum albumin (BSA) to block non-specific binding sites. Incubation was carried out for 1 h at room temperature. […] The optical density of the solution was determined at λ = 450 nm using a tablet spectrophotometer (TECAN Safire). […]
as §4

Sequence of JAK2 (O60674 whole entry): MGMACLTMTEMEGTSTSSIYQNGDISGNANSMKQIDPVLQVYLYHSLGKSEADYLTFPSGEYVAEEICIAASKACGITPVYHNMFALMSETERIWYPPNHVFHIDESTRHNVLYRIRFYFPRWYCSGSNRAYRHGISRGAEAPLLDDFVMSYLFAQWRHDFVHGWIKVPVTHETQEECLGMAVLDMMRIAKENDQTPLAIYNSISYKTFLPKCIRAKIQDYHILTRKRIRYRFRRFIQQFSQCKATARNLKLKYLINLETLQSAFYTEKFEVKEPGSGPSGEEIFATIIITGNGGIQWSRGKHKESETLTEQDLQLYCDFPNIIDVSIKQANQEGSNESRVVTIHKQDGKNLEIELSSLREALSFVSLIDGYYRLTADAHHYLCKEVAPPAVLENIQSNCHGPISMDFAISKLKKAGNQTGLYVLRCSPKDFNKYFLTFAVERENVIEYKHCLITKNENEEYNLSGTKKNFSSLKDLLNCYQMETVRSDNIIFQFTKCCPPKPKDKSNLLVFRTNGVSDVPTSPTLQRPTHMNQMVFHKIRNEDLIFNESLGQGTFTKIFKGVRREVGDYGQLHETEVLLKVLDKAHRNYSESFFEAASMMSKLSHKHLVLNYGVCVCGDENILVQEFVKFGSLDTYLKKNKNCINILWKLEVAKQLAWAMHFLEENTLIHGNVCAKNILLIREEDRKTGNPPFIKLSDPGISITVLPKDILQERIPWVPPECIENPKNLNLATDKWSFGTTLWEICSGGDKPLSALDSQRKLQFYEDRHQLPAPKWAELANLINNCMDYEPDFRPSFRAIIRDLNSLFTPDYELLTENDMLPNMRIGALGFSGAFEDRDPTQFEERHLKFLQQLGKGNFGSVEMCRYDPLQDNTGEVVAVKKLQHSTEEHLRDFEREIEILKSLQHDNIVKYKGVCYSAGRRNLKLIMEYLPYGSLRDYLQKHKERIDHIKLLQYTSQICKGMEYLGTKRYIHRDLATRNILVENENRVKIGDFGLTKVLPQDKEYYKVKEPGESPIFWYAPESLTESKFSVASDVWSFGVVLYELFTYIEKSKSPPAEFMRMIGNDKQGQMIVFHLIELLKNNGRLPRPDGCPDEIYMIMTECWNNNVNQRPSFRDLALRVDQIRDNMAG

Row | Structure (SMILES) | inhibition at 10 µM [1] | inhibition at 10 µM [2] | inhibition at 10 µM [3] | inhibition at 10 µM [4] | inhibition at 10 µM [5] | IC50 [5] | inhibition at 10 µM [6] | IC50 [6] | melting point | IC50 [2] | inhibitory activity against the studied protein kinases (in words) [7]
1 | CC1(C)c2ssc(=S)c2-c2cc(C(=S)N3CCOCC3)ccc2N1Cc1ccccc1 [2c, 5-Benzyl-4,4-dimethyl-8-(morpholin-4-ylcarbonothioyl)-4,5-dihydro-1H-[1,2]dithiolo[3,4-c]quinoline-1-thione] | 76% | 75% | 77% | 88% | 93% | 0.78 µM | 95% | 0.41 µM |  |  | 
2 | CN1c2ccc(C(=S)N3CCOCC3)cc2-c2c(ssc2=S)C1(C)C [2a, 4,4,5-Trimethyl-8-(morpholin-4-ylcarbonothioyl)-4,5-dihydro-1H-[1,2]dithiolo[3,4-c]quinoline-1-thione] | 81% | 87% | 84% | 82% | 93% | 6.57 µM | 96% | 0.36 µM | 106 to 107 °C | 0.54 µM | 
3 | CC1(C)Nc2cc3c(cc2-c2c1ssc2=S)OCCO3 [2h, 4,4-dimethyl-4,5,8,9-tetrahydro-1H-[1,4]dioxino[2,3-g][1,2]dithiolo[3,4-c]quinoline-1-thione] | 10% | 42% | 49% | 27% | 44% |  | 36% |  | 238 to 239 °C |  | 
4 | CN1c2ccc(C(=S)N3CCN(c4ccccc4)CC3)cc2-c2c(ssc2=S)C1(C)C [2b, 4,4,5-Trimethyl-8-[(4-phenylpiperazin-1-yl)carbonothioyl]-4,5-dihydro-1H-[1,2]dithiolo[3,4-c]quinoline-1-thione] | 83% | 90% | 86% | 84% | 92% |  | 95% | 0.38 µM |  | 0.25 µM | 
5 | COc1ccc2c(c1)-c1c(ssc1=S)C(C)(C)N2C(=O)CN1C(=O)CCC1=O [2j, 1-[2-(8-Methoxy-4,4-dimethyl-1-thioxo-1,4-dihydro-5H-[1,2]dithiolo[3,4-c]quinolin-5-yl)-2-oxoethyl]pyrrolidine-2,5-dione] | 11% | 56% | 7% | 9% | 5% |  | 39% |  | 201 to 202 °C |  | 
6 | CC1(C)c2ssc(=S)c2-c2cc(C(=S)N3CCCCC3)ccc2N1Cc1ccccc1 [2d, 5-Benzyl-4,4-dimethyl-8-(piperidin-1-ylcarbonothioyl)-4,5-dihydro-1H-[1,2]dithiolo[3,4-c]quinoline-1-thione] | 33% | 41% | 39% | 12% | 61% |  | 69% |  |  |  | 
7 | COc1ccc2c(c1)-c1c(ssc1=S)C(C)(C)N2C(=O)c1cccs1 [2i, 8-Methoxy-4,4-dimethyl-5-(2-thienylcarbonyl)-4,5-dihydro-1H-[1,2]dithiolo[3,4-c]quinoline-1-thione] | 64% | 77% | 81% | 24% | 76% |  | 89% |  | 158 to 159 °C |  | 

The remaining lines, values ahead:

Row | inhibition at 10 µM [1] | inhibition at 10 µM [2] | inhibition at 10 µM [3] | inhibition at 10 µM [4] | inhibition at 10 µM [5] | IC50 [5] | inhibition at 10 µM [6] | IC50 [6] | melting point | IC50 [2] | inhibitory activity against the studied protein kinases (in words) [7] | Structure (SMILES)
8 | 1% | 6% | -4% | 10% | 35% |  | 23% |  | 234 to 235 °C |  | very low activity | CC1(C)c2ssc(=S)c2-c2cc3c(cc2N1C(=O)c1ccccc1F)OCCO3 [2m, 5-(2-Fluorobenzoyl)-4,4-dimethyl-4,5,8,9-tetrahydro-1H-[1,4]dioxino[2,3-g][1,2]dithiolo[3,4-c]quinoline-1-thione]
9 | 53% | 67% | 75% | 24% | 81% |  | 86% |  | 218 to 219 °C |  |  | COc1ccc2c(c1)N(C(=O)c1sc3ccccc3c1Cl)C(C)(C)c1ssc(=S)c1-2 [2l, 5-[(3-Chloro-1-benzothien-2-yl)carbonyl]-7-methoxy-4,4-dimethyl-4,5-dihydro-1H-[1,2]dithiolo[3,4-c]quinoline-1-thione]
10 | 9% | 36% | 51% | 71% | 92% | 5.34 µM | 99% | 0.46 µM | 195 to 196 °C |  |  | COc1cccc(N=c2ssc3c2-c2cccc4c2N(C(=O)C4=O)C3(C)C)c1 [2q, 10-[(3-Methoxyphenyl)imino]-7,7-dimethyl-7,10-dihydro[1,2]dithiolo[3,4-c]pyrrolo[3,2,1-ij]quinoline-4,5-dione]
11 | 3% | 27% | 18% | -2% | 41% |  | 26% |  | 205 to 206 °C |  | very low activity | COc1ccc2c(c1)-c1c(ssc1=S)C(C)(C)N2C(=O)CN1C(=O)C2CCCCC2C1=O (stereo not shown) [2k, 2-[2-(8-Methoxy-4,4-dimethyl-1-thioxo-1,4-dihydro-5H-[1,2]dithiolo[3,4-c]quinolin-5-yl)-2-oxoethyl]hexahydro-1H-isoindole-1,3(2H)-dione]
